Patent publication US9179674B2, “Macrocyclic picolinamide compounds with fungicidal activity” (DOW AGROSCIENCES LLC, priority 2013, dated 2015)
Like-named read-outs stand apart in the source and are kept apart here.

Tests used:
Format in all cases: in vivo
[1] = test system: Mycosphaerella graminicola; Anamorph: Septoria tritici; assay: Leaf Blotch of Wheat fungicidal activity (SEPTTR); conditions: Zymoseptoria tritici; for pest or weed control at 100 ppm: rate 100 ppm; for pest or weed control at 121.5 g/ha: rate 121.5 g/H
How it was run: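 Acetone solutions diluted with nine volumes of water containing 110 ppm Triton X-100, sprayed to run-off on first-leaf wheat seedlings (Yuma), inoculated with S. tritici before or after treatment. Plants held in dew chambers, then in a 20 °C greenhouse. Disease severity (0–100%) scored when untreated plants fully symptomatic; % control relative to untreated.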

[2] = test system: Puccinia triticina; assay: Wheat Brown Rust fungicidal activity (PUCCRT); conditions: Puccinia triticina; for pest or weed control at 100 ppm: rate 100 ppm; for pest or weed control at 121.5 g/ha: rate 121.5 g/H
How it was run: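 Yuma wheat seedlings at first-leaf stage sprayed to run-off (acetone solution in water with 110 ppm Triton X-100) or track-sprayed as EC with 0.1% Trycol 5941; inoculated with P. triticina spores before or after treatment. Overnight dark dew at 22° C., then greenhouse 24° C.; disease severity 0–100% gives percent control vs untreated.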

[3] = test system: Erysiphe cichoracearum; assay: Powdery Mildew of Cucumber fungicidal activity (ERYSCI); conditions: Golovinomyces cichoracearum, 24 h, 1 Day Protectant, read-out: Disease Control ERYSCI 1DP
Method: Technical grades of materials were dissolved in acetone, which were then mixed with nine volumes of water containing 110 ppm Triton X-100. The fungicide solutions were applied onto wheat seedlings using an automated booth sprayer to run-off. All sprayed plants were allowed to air dry prior to further handling. All fungicides were evaluated using the aforementioned method for their activity vs. all target diseases. Wheat leaf blotch and brown rust activity were also evaluated using track spray applications, in which case the fungicides were formulated as EC formulations, containing 0.1% Trycol 5941 in the spray solutions. Wheat plants (variety Yuma) were grown from seed in a greenhouse in 50% mineral soil/50% soil-less Metro mix until the first leaf was fully emerged, with 7-10 seedlings per pot. These plants were inoculated with an aqueous spore suspension of Septoria tritici either prior to or after fungicide treatments. After inoculation the plants were kept in 100% relative humidity (one day in a dark dew chamber followed by two to three days in a lighted dew chamber at 20° C.) to permit spores to germinate and infect the leaf. The plants were then transferred to a greenhouse set at 20° C. for disease to develop. When disease symptoms were fully expressed on the 1st leaves of untreated plants, infection levels were assessed on a scale of 0 to 100 percent disease severity. Percent disease control was calculated using the ratio of disease severity on treated plants relative to untreated plants. Evaluation of Fungicidal Activity: Powdery Mildew of Cucumber (Erysiphe cichoracearum; Bayer Code […]) Cucumber seedlings (variety Bush Pickle) were grown in soil-less Metro mix, with one plant per pot, and used in the test when 12 to 14 days old. Plants were inoculated with a spore suspension 24 hr following fungicide treatments. After inoculation the plants remained in the greenhouse set at 20° C. until disease was fully expressed. Fungicide formulation, application and disease assessment on the sprayed leaves followed the procedures as described in the Example A.

[4] = 24 h, 1 Day Protectant, read-out: Disease control SEPTTR 1DP
[5] = 72 h, 3 Day Curative, read-out: Disease control SEPTTR 3DC
[6] = 24 h, 1 Day Protectant, read-out: Disease control PUCCRT 1DP
[7] = 72 h, 3 Day Curative, read-out: Disease control PUCCRT 3DC

Row | Structure (SMILES) | pest or weed control at 100 ppm [1, 4] | pest or weed control at 121.5 g/ha [1, 4] | pest or weed control at 100 ppm [1, 5] | pest or weed control at 121.5 g/ha [1, 5] | pest or weed control at 100 ppm [2, 6] | pest or weed control at 121.5 g/ha [2, 6] | pest or weed control at 100 ppm [2, 7] | pest or weed control at 121.5 g/ha [2, 7] | pest or weed control at 100 ppm [3]
1 | COc1ccnc(C(=O)N[C@H]2COC[C@H](Cc3ccc(F)cc3)[C@@H](OCC(C)C)[C@H](C)OC2=O)c1OC(C)=O [Compound F60] | 80 to 100% | 80 to 100% | 80 to 100% | 80 to 100% | 80 to 100% | 80 to 100% | 80 to 100% | 80 to 100% | 80 to 100%
2 | COc1ccnc(C(=O)N[C@H]2COC[C@H](Cc3ccc(Cl)cc3Cl)[C@@H](OC(=O)C(C)C)[C@H](C)OC2=O)c1OC(C)=O [Compound F73] | 80 to 100% | 80 to 100% | 80 to 100% | 80 to 100% | 80 to 100% | 80 to 100% | 80 to 100% | 0 to 80% | 0 to 80%
3 | COc1ccnc(C(=O)N[C@H]2COC[C@H](Cc3ccc(C)cc3)[C@@H](OCC(C)C)[C@H](C)OC2=O)c1OC(C)=O [Compound F80] | 80 to 100% | 80 to 100% | 80 to 100% | 80 to 100% | 80 to 100% | 80 to 100% | 80 to 100% | 80 to 100% | 80 to 100%
4 | COc1ccnc(C(=O)N[C@H]2COC[C@H](CCc3ccccc3)[C@@H](OCC(C)C)[C@H](C)OC2=O)c1OCOC(C)=O [Compound F82] | 80 to 100% | 80 to 100% | 80 to 100% | 80 to 100% | 80 to 100% | 80 to 100% | 80 to 100% | 80 to 100% | 0 to 80%
5 | COc1ccnc(C(=O)N[C@H]2COC[C@H](Cc3cccc4ccccc34)[C@@H](OC(=O)C(C)C)[C@H](C)OC2=O)c1OCOC(C)=O [Compound F83, (3S,6S,7R,8S)-3-(3-(acetoxymethoxy)-4-methoxypicolin-amido)-6-methyl-8-(naphthalen-1-ylmethyl)-4-oxo-1,5-dioxonan-7-yl isobutyrate] | 80 to 100% | 0 to 80% | 80 to 100% | 80 to 100% | 80 to 100% | 80 to 100% | 80 to 100% | 0 to 80% | 
6 | COc1ccnc(C(=O)N[C@H]2COC[C@H](Cc3ccc(F)cc3)[C@@H](OCC(C)C)[C@H](C)OC2=O)c1OCOC(C)=O [Compound F96] | 80 to 100% | 80 to 100% | 80 to 100% | 80 to 100% | 80 to 100% | 80 to 100% | 80 to 100% | 80 to 100% | 80 to 100%
7 | COc1ccnc(C(=O)N[C@H]2COC[C@H](CC(F)(F)F)[C@@H](OC3CCCC3)[C@H](C)OC2=O)c1OCOC(C)=O [Compound F105] | 80 to 100% | 80 to 100% | 80 to 100% | 80 to 100% | 80 to 100% | 80 to 100% | 80 to 100% | 80 to 100% | 0 to 80%
